# Source: patent US8703723B2, “Glycoside compounds and pharmaceutical compositions thereof” (Centrose, LLC, priority 2009, dated 2014)
# What was measured:
# H1299 (NSCLC) cell line = test: Cancer cell cytotoxicity assay (Calcein AM / Cell Titer-Glo), H1299; type: cell-based, human
# Protocol: (§1) Compounds of the invention and comparative compounds were assayed in three cancer cell lines to confirm cytotoxic activity and to set a range of concentrations to use in subsequent assays. All cell lines were maintained in RPMI medium 1640 supplemented with 10% (wt/vol) fetal bovine serum and penicillin-streptomycin (100 units/ml and 100 μg/ml). Cells were routinely checked for microbial or mycoplasma contamination and if necessary replaced. Cells were harvested by trypsinization using 0.25% trypsin and 0.1% EDTA and then counted in a ViCell XR coulter counter in duplicate, before and after dilution for assay plating. Between four to nine different types of human cancer cells were plated at a density of 10,000-15,000 cells per well of each 96-well black tissue culture treated microtiter plate, then were grown for 1 hour at 37° C. with 5% CO2/95% air in a humidified incubator to allow cells to attach before compound addition. Compound stocks (100×) were prepared in 96-well V-bottom polypropylene microtiter plates. Five serial (1:2) dilutions were made with anhydrous DMSO at 100× the final concentration used in the assay. The individual wells in compound-containing […] well plates were diluted 1:10 with complete cell culture medium and the 10× (10 μL) stocks were added to 90 μl of cells in each plate to ensure full mixing of stocks with culture media by using a Biomek FX liquid handler with 96-well head. Doxorubicin was used as the control to monitor the behavior of each cell line. Cells were incubated with the compounds for 3 to 4 days before fluorescence and luminescence reading. Test plates were removed from the incubator and washed once in sterile PBS to remove serum containing calcium esterases. Calcein AM (acetoxymethyl ester) reagent was added and the cells were incubated for 30 min at 37° C. Plates were read for emission by using a fluorescein filter (excitation 485 nm, emission 535 nm). An equal volume (30 μL) of Cell Titer-Glo reagent (Promega Corporation, Inc.) was added and incubated for 10 min at room temperature with gentle agitation to lyse the cells. Each plate was re-read for luminescence to confirm the inhibition observed in the fluorescent […] assay as a measure of cell viability. The cancer cell cytotoxicity assays were run in triplicate using ≧5 different drug concentrations, and the data were analyzed to establish statistical significance and a valid IC50 value for inhibition of cell growth, based on ≧2 log differences in drug effect.
# (§2) The cancer cell cytotoxicities (determined substantially according to the method of Example 5) of various compounds of the invention and comparative compounds as determined in four to five different human cancer cell lines are shown in Table 1. The structures of the compounds listed are found in FIGS. 2-4.
# [1] = test system: SKOV3 (Ovarian) cell line; test: Cancer cell cytotoxicity assay (Calcein AM / Cell Titer-Glo), SKOV3; type: cell-based, human
# Protocol: as §1, §2
# A549 (NSCLC) cell line = test: Cancer cell cytotoxicity assay (Calcein AM / Cell Titer-Glo), A549; type: cell-based, human
# Protocol: as §1, §2
# [2] = test system: NCI-H460 (NSCLC) cell line; test: Cancer cell cytotoxicity assay (Calcein AM / Cell Titer-Glo), NCI-H460; type: cell-based, human
# Protocol: as §1, §2
# [3] = test system: HT29 (Colorectal) cell line; test: Cancer cell cytotoxicity assay (Calcein AM / Cell Titer-Glo), HT29; type: cell-based, human
# Protocol: as §1, §2
# human cancer cell lines = test: Cancer cell cytotoxicity, summary over four to five human cancer cell lines; type: cell-based; conditions: read-out: IC50 values (cancer cell cytotoxicity)
# Protocol: as §1, §2
# [4] = NSCLC, footnote 3: determined at same time as CEN07-117 and -121
# [5] = Ovarian, footnote 3: determined at same time as CEN07-117 and -121
# [6] = Colorectal, footnote 3: determined at same time as CEN07-117 and -121
# [7] = NSCLC, footnote 4: determined at same time as CEN08-177 and -178
# [8] = Ovarian, assay set not specified
# [9] = Colorectal, assay set not specified
# [10] = Homo sapiens, NCI-H1299, NSCLC, footnote 6: determined at same time as CEN08-243 and -244
# [11] = Homo sapiens, SK-OV-3, Ovarian, footnote 6: determined at same time as CEN08-243 and -244
# [12] = Homo sapiens, A549, NSCLC, footnote 6: determined at same time as CEN08-243 and -244
# [13] = Homo sapiens, NCI-H460, NSCLC, footnote 6: determined at same time as CEN08-243 and -244
# [14] = NSCLC, footnote 7: determined at same time as CEN08-180
compound,measurement,setting,value
CON(C1CCC2(C)C(CCC3C2CC(O)C2(C)C(C4=CC(=O)OC4)CCC32O)C1)C1OCC(O)C(O)C1O (stereo not drawn) [CEN07-117],IC50,H1299 (NSCLC) cell line; [4],500 nM
same,IC50,[1]; [5],550 nM
same,IC50,A549 (NSCLC) cell line; [4],340 nM
same,IC50,[2]; [4],350 nM
same,IC50,[3]; [6],440 nM
CON(C1CCC2(C)C(CCC3C2CC(O)C2(C)C(C4=CC(=O)OC4)CCC32O)C1)C1OCC(O)C(O)C1O (stereo not drawn) [CEN07-121],IC50,H1299 (NSCLC) cell line; [4],430 nM
same,IC50,[1]; [5],300 nM
same,IC50,A549 (NSCLC) cell line; [4],150 nM
same,IC50,[2]; [4],160 nM
same,IC50,[3]; [6],230 nM
CC12CCC(OC3OCC(O)C(O)C3O)CC1CCC1C2CCC2(C)C(C3=CC(=O)OC3)CCC12O (stereo not drawn) [CEN08-177],IC50,H1299 (NSCLC) cell line; [7],40 nM
same,IC50,"[1]; Ovarian, footnote 4: determined at same time as CEN08-177 and -178",80 nM
same,IC50,A549 (NSCLC) cell line; [7],20 nM
same,IC50,[2]; [7],20 nM
same,IC50,"[3]; Colorectal, footnote 4: determined at same time as CEN08-177 and -178",70 nM
CON(C1C=C2CCC3C(CCC4(C)C(c5ccc(=O)oc5)CCC34O)C2(C)CC1)C1OCC(O)C(O)C1O (stereo not drawn) [CEN08-185],IC50,"H1299 (NSCLC) cell line; NSCLC, assay set not specified",5 nM
same,IC50,[1]; [8],15 nM
same,IC50,"A549 (NSCLC) cell line; NSCLC, assay set not specified",2 nM
same,IC50,"[2]; NSCLC, assay set not specified",9 nM
same,IC50,[3]; [9],13 nM
CC12CCC(OC3OCC(O)C(O)C3O)C=C1CCC1C2CCC2(C)C(c3ccc(=O)oc3)CCC12O (stereo not drawn) [CEN08-190],IC50,"H1299 (NSCLC) cell line; NSCLC, assay set not specified",4 nM
same,IC50,[1]; [8],28 nM
same,IC50,"A549 (NSCLC) cell line; NSCLC, assay set not specified",4 nM
same,IC50,"[2]; NSCLC, assay set not specified",6 nM
same,IC50,[3]; [9],6 nM
CC12CCC(OC3OCC(O)C(O)C3O)C=C1CCC1C2CCC2(C)C(c3ccc(=O)oc3)CCC12O (stereo not drawn) [CEN08-192],IC50,"H1299 (NSCLC) cell line; NSCLC, assay set not specified",11 nM
same,IC50,[1]; [8],72 nM
same,IC50,"A549 (NSCLC) cell line; NSCLC, assay set not specified",8 nM
same,IC50,"[2]; NSCLC, assay set not specified",16 nM
same,IC50,[3]; [9],16 nM
CON(C1C=C2CCC3C(CCC4(C)C(c5ccc(=O)oc5)CCC34O)C2(C)CC1)C1OC(CO)C(O)C(O)C1N (stereo not drawn) [CEN08-237],IC50,"H1299 (NSCLC) cell line; NSCLC, assay set not specified",20 nM
same,IC50,"A549 (NSCLC) cell line; NSCLC, assay set not specified",21 nM
same,IC50,"[2]; NSCLC, assay set not specified",37 nM
CON(C1CCC2(C)C(CCC3C2CCC2(C)C(C4=CC(=O)OC4)CCC32O)C1)C1OCC(N)C(O)C1O (stereo not drawn) [CEN08-241],IC50,"H1299 (NSCLC) cell line; NSCLC, assay set not specified",24 nM
same,IC50,[1]; [8],74 nM
same,IC50,"A549 (NSCLC) cell line; NSCLC, assay set not specified",20 nM
same,IC50,"[2]; NSCLC, assay set not specified",27 nM
CON(C1CCC2(C)C(CCC3C2CCC2(C)C(C4=CC(=O)OC4)CCC32O)C1)C1OCC(N)C(O)C1O (stereo not drawn) [CEN08-242],IC50,"H1299 (NSCLC) cell line; NSCLC, assay set not specified",159 nM
same,IC50,[1]; [8],228 nM
same,IC50,"A549 (NSCLC) cell line; NSCLC, assay set not specified",50 nM
same,IC50,"[2]; NSCLC, assay set not specified",74 nM
"CON(C1C=C2CCC3C(CC[C@]4(C)[C@@H](c5ccc(=O)oc5)CC[C@]34O)[C@@]2(C)CC1)[C@H]1OC[C@H](N)[C@H](O)C1O (stereo partly drawn) [CEN08-243, (3S)-3-N-methoxyamino-scillarenin-L-neo-4-amino-4-deoxyxyloside]",IC50,H1299 (NSCLC) cell line; [10],7 nM
same,IC50,human cancer cell lines,< 80 nM
same,IC50,[1]; [11],5 nM
same,IC50,A549 (NSCLC) cell line; [12],3 nM
same,IC50,[2]; [13],5 nM
"CON(C1OC[C@H](N)[C@H](O)[C@@H]1O)[C@@H]1C=C2CCC3C(CC[C@]4(C)[C@@H](c5ccc(=O)oc5)CC[C@]34O)[C@@]2(C)CC1 (stereo partly drawn) [CEN08-244, (3S)-3-N-methoxyamino-scillarenin-L-neo-4-amino-4-deoxyriboside]",IC50,H1299 (NSCLC) cell line; [10],10 nM
same,IC50,human cancer cell lines,< 80 nM
same,IC50,[1]; [11],6 nM
same,IC50,A549 (NSCLC) cell line; [12],4 nM
same,IC50,[2]; [13],6 nM
CC1OC(=O)C=C1C1CCC2(O)C3CCC4CC(OC5OCC(O)C(O)C5O)CCC4(C)C3CCC12C (stereo not drawn) [CEN08-245],IC50,"H1299 (NSCLC) cell line; NSCLC, assay set not specified",3700 nM
same,IC50,[1]; [8],3220 nM
same,IC50,"A549 (NSCLC) cell line; NSCLC, assay set not specified",1290 nM
same,IC50,"[2]; NSCLC, assay set not specified",2100 nM
"C[C@@H]1O[C@@H](O[C@@H]2C=C3CC[C@@H]4[C@H](CC[C@]5(C)[C@@H](c6ccc(=O)oc6)CC[C@]45O)[C@@]3(C)CC2)[C@H](O)[C@H](O)[C@H]1O [proscillaridin, reference compound]",IC50,H1299 (NSCLC) cell line; [10],8 nM
same,IC50,"H1299 (NSCLC) cell line; Homo sapiens, NCI-H1299, NSCLC, footnote 7: determined at same time as CEN08-180",4 nM
same,IC50,"H1299 (NSCLC) cell line; Homo sapiens, NCI-H1299, NSCLC, footnote 5: determined at same time as CEN08-193",3 nM
same,IC50,"[1]; Homo sapiens, SK-OV-3, Ovarian, assay set not specified",12 nM
same,IC50,[1]; [11],15 nM
same,IC50,"[1]; Homo sapiens, SK-OV-3, Ovarian, footnote 7: determined at same time as CEN08-180",11 nM
same,IC50,"[1]; Homo sapiens, SK-OV-3, Ovarian, footnote 5: determined at same time as CEN08-193",45 nM
same,IC50,A549 (NSCLC) cell line; [12],12 nM
same,IC50,"A549 (NSCLC) cell line; Homo sapiens, A549, NSCLC, footnote 7: determined at same time as CEN08-180",3 nM
same,IC50,"A549 (NSCLC) cell line; Homo sapiens, A549, NSCLC, footnote 5: determined at same time as CEN08-193",2 nM
same,IC50,[2]; [13],12 nM
same,IC50,"[2]; Homo sapiens, NCI-H460, NSCLC, footnote 7: determined at same time as CEN08-180",11 nM
same,IC50,"[2]; Homo sapiens, NCI-H460, NSCLC, footnote 5: determined at same time as CEN08-193",5 nM
same,IC50,"[3]; Homo sapiens, HT-29, Colorectal, footnote 7: determined at same time as CEN08-180",10 nM
same,IC50,"[3]; Homo sapiens, HT-29, Colorectal, footnote 5: determined at same time as CEN08-193",7 nM
(3β)-3-N-methoxyaminoscillarenin [CEN08-180],IC50,H1299 (NSCLC) cell line; [14],8 nM
same,IC50,"[1]; Ovarian, footnote 7: determined at same time as CEN08-180",34 nM
same,IC50,A549 (NSCLC) cell line; [14],3 nM
same,IC50,[2]; [14],13 nM
same,IC50,"[3]; Colorectal, footnote 7: determined at same time as CEN08-180",26 nM
